Reference: article PMC8963254, “Effects of Lysine N-ζ-Methylation in Ultrashort Tetrabasic Lipopeptides (UTBLPs) on the Potentiation of Rifampicin, Novobiocin, and Niclosamide in Gram-Negative Bacteria” (Antibiotics, 2022)
Read-outs that look alike come from different tables or passages of the source. Non-standard residues stand in square brackets, D forms with d. Residues, ends and D or L forms follow the SMILES beside them. *: point of attachment. Lys(Me3) = C[N+](C)(C)CCCC[C@H](N)C(=O)O; Octanoyl = CCCCCCCC(=O)*

What was measured:
E. faecium ATCC 27270 [1] = type: cell-based, Enterococcus faecium; conditions: ATCC 27270, 18 h
Outline: (§1)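 MIC was determined by broth microdilution following CLSI guidelines. Serially varied compound concentrations were incubated with bacterial inoculum at 5 × 10^5 CFU/mL (final) for 18 h at 37 °C. Growth was scored as turbidity by absorbance at 590 nm.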

E. cloacae 118564 = test: microbe, parasite or virus in culture; type: cell-based, Enterobacter cloacae; conditions: 118564, 18 h
Outline: as §1

K. pneumoniae 113250 [2] = test: microbe, parasite or virus in culture; type: cell-based, Klebsiella pneumoniae; conditions: 113250, 18 h
Outline: as §1

A. baumannii 92247 = type: cell-based, Acinetobacter baumannii; conditions: for MICUTBLP: UTBLP alone
Outline: (§2)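 Values derive from a two-agent checkerboard with an 18 h, 37 °C incubation. FICI cut-offs: ≤0.5 synergy, 0.5–4 additive, >4 antagonism.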

A. baumannii AB027 = type: cell-based, Acinetobacter baumannii; conditions: for MICUTBLP: UTBLP alone
Outline: as §2

A. baumannii ATCC 17978 = type: cell-based, Acinetobacter baumannii; conditions: for MICUTBLP: UTBLP alone
Outline: as §2

E. coli 94393 = type: cell-based, Escherichia coli; conditions: for MICUTBLP: UTBLP alone
Outline: as §2

E. coli ATCC 25922 = type: cell-based, Escherichia coli; conditions: for MICUTBLP: UTBLP alone
Outline: as §2

K. pneumoniae 113250 [3] = type: cell-based, Klebsiella pneumoniae; conditions: for MICUTBLP: UTBLP alone
Outline: as §2

MRSA ATCC 33592 = type: cell-based, Staphylococcus aureus
Outline: as §2

S. aureus ATCC 29213 = type: cell-based, Staphylococcus aureus
Outline: as §2

E. faecium ATCC 27270 [4] = type: cell-based, Enterococcus faecium
Outline: as §2

[5] = UTBLP in combination with novobiocin
[6] = UTBLP in combination with rifampicin
[7] = novobiocin in combination with the UTBLP
[8] = rifampicin in combination with the UTBLP
[9] = UTBLP in combination with chloramphenicol
[10] = UTBLP in combination with niclosamide
[11] = chloramphenicol in combination with the UTBLP
[12] = niclosamide in combination with the UTBLP
[13] = UTBLP alone, plate with chloramphenicol

- MIC (E. faecium ATCC 27270 [1]): 128 µg/mL
- MIC (E. cloacae 118564): > 128 µg/mL
- MIC (K. pneumoniae 113250 [2]): > 128 µg/mL
- MICUTBLP (A. baumannii 92247; plate with novobiocin): 128 µg/mL
- MICUTBLP (A. baumannii 92247; plate with rifampicin): 128 µg/mL
- MICUTBLP [MICcombo] (A. baumannii 92247; [5]): 16 µg/mL
- MICUTBLP [MICcombo] (A. baumannii 92247; [6]): 16 µg/mL
- MICantibiotic [MICcombo] (A. baumannii 92247; [7]): 0.125 µg/mL
- MICantibiotic [MICcombo] (A. baumannii 92247; [8]): 0.5 µg/mL
- MICUTBLP (A. baumannii AB027; plate with novobiocin): > 128 µg/mL
- MICUTBLP (A. baumannii AB027; plate with rifampicin): > 128 µg/mL
- MICUTBLP [MICcombo] (A. baumannii AB027; [5]): 16 µg/mL
- MICUTBLP [MICcombo] (A. baumannii AB027; [6]): 16 µg/mL
- MICantibiotic [MICcombo] (A. baumannii AB027; [7]): 2 µg/mL
- MICantibiotic [MICcombo] (A. baumannii AB027; [8]): 0.25 µg/mL
- MICUTBLP (A. baumannii ATCC 17978; plate with chloramphenicol): > 128 µg/mL
- MICUTBLP (A. baumannii ATCC 17978; plate with niclosamide): > 128 µg/mL
- MICUTBLP (A. baumannii ATCC 17978; plate with novobiocin): > 128 µg/mL
- MICUTBLP (A. baumannii ATCC 17978; plate with rifampicin): > 128 µg/mL
- MICUTBLP [MICcombo] (A. baumannii ATCC 17978; [9]): 0.25 µg/mL
- MICUTBLP [MICcombo] (A. baumannii ATCC 17978; [10]): 2 µg/mL
- MICUTBLP [MICcombo] (A. baumannii ATCC 17978; [5]): 16 µg/mL
- MICUTBLP [MICcombo] (A. baumannii ATCC 17978; [6]): 16 µg/mL
- MICantibiotic [MICcombo] (A. baumannii ATCC 17978; [11]): 64 µg/mL
- MICantibiotic [MICcombo] (A. baumannii ATCC 17978; [12]): 16 µg/mL
- MICantibiotic [MICcombo] (A. baumannii ATCC 17978; [7]): 4 µg/mL
- MICantibiotic [MICcombo] (A. baumannii ATCC 17978; [8]): 0.25 µg/mL
- MICUTBLP (E. coli 94393; plate with novobiocin): 128 µg/mL
- MICUTBLP (E. coli 94393; plate with rifampicin): 128 µg/mL
- MICUTBLP [MICcombo] (E. coli 94393; [5]): 16 µg/mL
- MICUTBLP [MICcombo] (E. coli 94393; [6]): 16 µg/mL
- MICantibiotic [MICcombo] (E. coli 94393; [7]): 16 µg/mL
- MICUTBLP (E. coli ATCC 25922; plate with chloramphenicol): > 128 µg/mL
- MICUTBLP (E. coli ATCC 25922; plate with niclosamide): > 128 µg/mL
- MICUTBLP (E. coli ATCC 25922; plate with novobiocin): > 128 µg/mL
- MICUTBLP (E. coli ATCC 25922; plate with rifampicin): > 128 µg/mL
- MICUTBLP [MICcombo] (E. coli ATCC 25922; [9]): 8 µg/mL
- MICUTBLP [MICcombo] (E. coli ATCC 25922; [10]): 8 µg/mL
- MICUTBLP [MICcombo] (E. coli ATCC 25922; [5]): 16 µg/mL
- MICUTBLP [MICcombo] (E. coli ATCC 25922; [6]): 16 µg/mL
- MICantibiotic [MICcombo] (E. coli ATCC 25922; [11]): 2 µg/mL
- MICantibiotic [MICcombo] (E. coli ATCC 25922; [12]): 8 µg/mL
- MICantibiotic [MICcombo] (E. coli ATCC 25922; [7]): 2 µg/mL
- MICantibiotic [MICcombo] (E. coli ATCC 25922; [8]): 1 µg/mL
- MICUTBLP (K. pneumoniae 113250 [3]; plate with novobiocin): > 128 µg/mL
- MICUTBLP (K. pneumoniae 113250 [3]; plate with rifampicin): > 128 µg/mL
- MICUTBLP [MICcombo] (K. pneumoniae 113250 [3]; [5]): 16 µg/mL
- MICUTBLP [MICcombo] (K. pneumoniae 113250 [3]; [6]): 16 µg/mL
- MICantibiotic [MICcombo] (K. pneumoniae 113250 [3]; [7]): 32 µg/mL
- MICantibiotic [MICcombo] (K. pneumoniae 113250 [3]; [8]): 4 µg/mL
- MICUTBLP (MRSA ATCC 33592; [13]): > 128 µg/mL
- MICUTBLP [MICcombo] (MRSA ATCC 33592; [9]): 0.25 µg/mL
- MICchloramphenicol [MICcombo] (MRSA ATCC 33592; [11]): 64 µg/mL
- MICUTBLP (S. aureus ATCC 29213; [13]): > 128 µg/mL
- MICUTBLP [MICcombo] (S. aureus ATCC 29213; [9]): 0.25 µg/mL
- MICchloramphenicol [MICcombo] (S. aureus ATCC 29213; [11]): 8 µg/mL
- MICUTBLP (E. faecium ATCC 27270 [4]; [13]): > 128 µg/mL
- MICUTBLP [MICcombo] (E. faecium ATCC 27270 [4]; [9]): 0.25 µg/mL
- MICchloramphenicol [MICcombo] (E. faecium ATCC 27270 [4]; [11]): 4 µg/mL
Compound: CCCCCCCC(=O)NCCCC[C@H](NC(=O)CCCCCCC)C(=O)N[C@@H](CCCC[N+](C)(C)C)C(=O)N[C@@H](CCCC[N+](C)(C)C)C(=O)N[C@@H](CCCC[N+](C)(C)C)C(=O)N[C@@H](CCCC[N+](C)(C)C)C(N)=O [UTBLP 8] (Octanoyl-K(Octanoyl)[Lys(Me3)][Lys(Me3)][Lys(Me3)][Lys(Me3)]-NH2)
- Interpretation (A. baumannii 92247; UTBLP + novobiocin): Synergy (FICI ≤ 0.5 is synergistic)
- Interpretation (A. baumannii 92247; UTBLP + rifampicin): Synergy (FICI ≤ 0.5 is synergistic)
- Interpretation (A. baumannii AB027; UTBLP + novobiocin): Synergy (FICI ≤ 0.5 is synergistic)
- Interpretation (A. baumannii AB027; UTBLP + rifampicin): Synergy (FICI ≤ 0.5 is synergistic)
- Interpretation (A. baumannii ATCC 17978; UTBLP + chloramphenicol): Additive (0.5 < x ≤ 4 is additive)
- Interpretation (A. baumannii ATCC 17978; UTBLP + niclosamide): Synergy (FICI ≤ 0.5 is synergistic)
- Interpretation (A. baumannii ATCC 17978; UTBLP + novobiocin): Synergy (FICI ≤ 0.5 is synergistic)
- Interpretation (A. baumannii ATCC 17978; UTBLP + rifampicin): Synergy (FICI ≤ 0.5 is synergistic)
- Interpretation (E. coli 94393; UTBLP + novobiocin): Synergy (FICI ≤ 0.5 is synergistic)
- Interpretation (E. coli 94393; UTBLP + rifampicin): Additive (0.5 < x ≤ 4 is additive)
- Interpretation (E. coli ATCC 25922; UTBLP + chloramphenicol): Synergy (FICI ≤ 0.5 is synergistic)
- Interpretation (E. coli ATCC 25922; UTBLP + niclosamide): Synergy (FICI ≤ 0.5 is synergistic)
- Interpretation (E. coli ATCC 25922; UTBLP + novobiocin): Synergy (FICI ≤ 0.5 is synergistic)
- Interpretation (E. coli ATCC 25922; UTBLP + rifampicin): Additive (0.5 < x ≤ 4 is additive)
- Interpretation (K. pneumoniae 113250 [3]; UTBLP + novobiocin): Synergy (FICI ≤ 0.5 is synergistic)
- Interpretation (K. pneumoniae 113250 [3]; UTBLP + rifampicin): Synergy (FICI ≤ 0.5 is synergistic)
- Interpretation (MRSA ATCC 33592; UTBLP + chloramphenicol): Additive (0.5 < x ≤ 4 is additive)
- Interpretation (E. faecium ATCC 27270 [4]; UTBLP + chloramphenicol): Additive (0.5 < x ≤ 4 is additive)
